Measured values from ChEMBL document CHEMBL5149974, “Antimicrobial drugs bearing guanidine moieties: A review” (Eur J Med Chem, 2021).
Values after ≈ are worked out from the molar mass of the structure shown.

Columns and labels:
Assay type in all cases: functional
[1] = test system: Mycobacterium tuberculosis; assay: Potentiation of isoniazid-induced antimycobacterial activity against Mycobacterium tuberculosis H37Rv assessed as reduction in isoniazid MIC at 250 uM incubated for 48 hrs by alamar blue staining based analysis
[2] = test system: Mycobacterium tuberculosis; assay: Potentiation of isoniazid-induced antimycobacterial activity against Mycobacterium tuberculosis H37Rv assessed as reduction in isoniazid MIC at 125 uM incubated for 48 hrs by alamar blue staining based analysis
Staphylococcus aureus [3] = assay: Potentiation of Norfloxacin-induced antibacterial activity against Staphylococcus aureus 1199B overexpressing NorA efflux pump assessed as fold reduction in norfloxacin MIC by microdilution method
Staphylococcus aureus [4] = assay: Potentiation of ethidium bromide-induced antibacterial activity against Staphylococcus aureus 1199B overexpressing NorA efflux pump assessed as fold reduction in ethidium bromide MIC by microdilution method
Staphylococcus aureus [5] = assay: Potentiation of Norfloxacin-induced antibacterial activity against Staphylococcus aureus 1199B overexpressing NorA efflux pump assessed as norfloxacin MIC by microdilution method
Staphylococcus aureus [6] = assay: Potentiation of ethidium bromide-induced antibacterial activity against Staphylococcus aureus 1199B overexpressing NorA efflux pump assessed as ethidium bromide MIC by microdilution method
[7] = test system: Mycolicibacterium smegmatis; assay: Potentiation of cefotaxime-induced antimycobacterial activity against Mycobacterium smegmatis assessed as cefotaxime MIC at 9 ug/ml (reference value: 128 ug/ml); conditions: dose 9 µg/ml
Escherichia coli [8] = assay: Antibacterial activity against Escherichia coli CCUG assessed as growth inhibition incubated for 18 hrs by broth microdilution method
Klebsiella pneumoniae = assay: Antibacterial activity against Klebsiella pneumoniae ATCC 13833 assessed as growth inhibition incubated for 18 hrs by broth microdilution method
Pseudomonas aeruginosa [9] = assay: Antibacterial activity against Pseudomonas aeruginosa ATCC 27853 assessed as growth inhibition incubated for 18 hrs by broth microdilution method
Acinetobacter baumannii = assay: Antibacterial activity against Acinetobacter baumannii ATCC 17978 assessed as growth inhibition incubated for 18 hrs by broth microdilution method
[10] = test system: Staphylococcus epidermidis; assay: Antibacterial activity against Staphylococcus epidermidis ATCC 14990 assessed as growth inhibition incubated for 18 hrs by broth microdilution method
Enterococcus faecalis [11] = assay: Antibacterial activity against Enterococcus faecalis ATCC 29212 assessed as growth inhibition incubated for 18 hrs by broth microdilution method
Bacillus subtilis [12] = assay: Antibacterial activity against Bacillus subtilis ATCC 6633 assessed as growth inhibition incubated for 18 hrs by broth microdilution method
Staphylococcus aureus [13] = assay: Antibacterial activity against Staphylococcus aureus ATCC 25923 assessed as growth inhibition incubated for 18 hrs by broth microdilution method
Staphylococcus aureus [14] = assay: Antibacterial activity against Staphylococcus aureus assessed as inhibition of bacterial growth measured after 24 hrs
Enterococcus faecalis [15] = assay: Antibacterial activity against Enterococcus faecalis assessed as inhibition of bacterial growth measured after 24 hrs
Bacillus subtilis [16] = assay: Antibacterial activity against Bacillus subtilis assessed as inhibition of bacterial growth measured after 24 hrs
Staphylococcus aureus [17] = assay: Antibacterial activity against Staphylococcus aureus CMCC (B) 26003 assessed as inhibition of bacterial growth incubated for 24 hrs by microplate reader analysis
Staphylococcus aureus [18] = assay: Antibacterial activity against Staphylococcus aureus CMCC 25923 assessed as inhibition of bacterial growth incubated for 24 hrs by microplate reader analysis
Streptococcus mutans = assay: Antibacterial activity against Streptococcus mutans BNCC 336931 assessed as inhibition of bacterial growth incubated for 24 hrs by microplate reader analysis
Enterococcus faecalis [19] = assay: Antibacterial activity against Enterococcus faecalis CMCC 29212 assessed as inhibition of bacterial growth incubated for 24 hrs by microplate reader analysis
Bacillus subtilis [20] = assay: Antibacterial activity against Bacillus subtilis CMCC 63501 assessed as inhibition of bacterial growth incubated for 24 hrs by microplate reader analysis
Escherichia coli [21] = assay: Antibacterial activity against Escherichia coli CMCC 25922 assessed as inhibition of bacterial growth incubated for 24 hrs by microplate reader analysis
Escherichia coli [22] = assay: Antibacterial activity against Escherichia coli CMCC 44568 assessed as inhibition of bacterial growth incubated for 24 hrs by microplate reader analysis
Pseudomonas aeruginosa [23] = assay: Antibacterial activity against Pseudomonas aeruginosa CMCC 27853 assessed as inhibition of bacterial growth incubated for 24 hrs by microplate reader analysis
Pseudomonas aeruginosa [24] = assay: Antibacterial activity against Pseudomonas aeruginosa CMCC 10104 assessed as inhibition of bacterial growth incubated for 24 hrs by microplate reader analysis
Staphylococcus aureus [25] = assay: Antibacterial activity against multidrug-resistant Staphylococcus aureus ATCC 43300 assessed as inhibition of bacterial growth incubated for 24 hrs by microplate reader analysis
Staphylococcus aureus [26] = assay: Antibacterial activity against multidrug-resistant Staphylococcus aureus ATCC 33591 assessed as inhibition of bacterial growth incubated for 24 hrs by microplate reader analysis
Pseudomonas aeruginosa [27] = assay: Antibacterial activity against multidrug-resistant Pseudomonas aeruginosa ATCC BAA-2111 assessed as inhibition of bacterial growth incubated for 24 hrs by microplate reader analysis
[28] = test system: Mycobacterium tuberculosis; assay: Anti-mycobacterial activity against Mycobacterium tuberculosis H37Rv ATCC […] assessed as bacterial growth inhibition by alamar blue assay
Staphylococcus aureus [29] = assay: Antibacterial activity against methicillin-resistant Staphylococcus aureus ATCC 33591 assessed as bacterial growth inhibition by CLSI based broth microdilution method
Staphylococcus aureus [30] = assay: Antibacterial activity against Staphylococcus aureus assessed as bacterial growth inhibition incubated for 24 hrs
[31] = test system: Mycobacterium tuberculosis; assay: Anti-mycobacterial activity against Mycobacterium tuberculosis H37Rv ATCC 27294 assessed as bacterial growth inhibition incubated for 7 days by resazurin dye based assay; conditions: H37Rv ATCC 27294, 168 h, time 7 day
[32] = test system: Plasmodium vinckei petteri; assay: Antimalarial activity against Plasmodium vinckei petteri 279BY infected in Swiss mouse assessed as reduction in parasitemia administered intraperitoneally once daily for 4 consecutive days and measured on day 5; conditions: 120 h, route ip, time 5 day
[33] = test system: Plasmodium vinckei petteri; assay: Antimalarial activity against Plasmodium vinckei petteri 279BY infected in Swiss mouse assessed as reduction in parasitemia administered orally once daily for 4 consecutive days and measured on day 5; conditions: 120 h, route po, time 5 day
Escherichia coli [34] = assay: Antibacterial activity against Escherichia coli assessed as bacterial growth inhibition incubated for 24 hrs
[35] = test system: Mycobacterium tuberculosis; assay: Antibacterial activity against Mycobacterium tuberculosis H37Rv assessed as bacterial growth inhibition by vertical diffusion method

**Q.** CCCCCCc1ccc(-c2c[nH]c(N)n2)cc1 was tested. Which MIC [1] did it give?
**A.** 0.039 µg/mL

**Q.** And the MIC [2]?
**A.** 0.039 µg/mL

**Q.** What does the source list for Cl.N#Cc1ccc(/C=N/NC(=N)N)cc1?
**A.** fold change (FC) (Staphylococcus aureus [3]): <=16; fold change (FC) (Staphylococcus aureus [4]): <=32

**Q.** Which results are given for Cl.N=C(N)N/N=C/c1ccnc2ccccc12?
**A.** MIC (Staphylococcus aureus [5]): 8 µg/mL; MIC (Staphylococcus aureus [6]): 1 µg/mL; fold change (FC) (Staphylococcus aureus [3]): <=16; fold change (FC) (Staphylococcus aureus [4]): <=32

**Q.** CCCCCc1ccc(C(=O)Nc2ccc3c(c2)nc(N)n3CCCc2ccccc2)cc1 was tested. Which MIC [7] did it give?
**A.** 1 µg/mL

**Q.** Which “fold change (FC)” value (Staphylococcus aureus [3]) does the source give for Cl.NC(N)=N/N=C/c1ccc(Cl)c(Cl)c1 here?
**A.** <=16

**Q.** What about the “fold change (FC)” value (Staphylococcus aureus [4]) of the same compound?
**A.** <=32

**Q.** What does the source list for N=C(N)NCCCCCCCCN(CCCCCCCCNC(=N)NCC1CC1)C(=O)N(CCCCCCCCNC(=N)N)CCCCCCCCNC(=N)NCC1CC1?
**A.** MIC (Escherichia coli [8]): 0.5 µg/mL (≈ 0.591 µM); MIC (Klebsiella pneumoniae): 0.5 µg/mL (≈ 0.591 µM); MIC (Pseudomonas aeruginosa [9]): 0.5 µg/mL (≈ 0.591 µM); MIC (Acinetobacter baumannii): 0.5 µg/mL (≈ 0.591 µM); MIC [10]: 0.5 µg/mL (≈ 0.591 µM); MIC (Enterococcus faecalis [11]): 0.5 µg/mL (≈ 0.591 µM); MIC (Bacillus subtilis [12]): 0.5 µg/mL (≈ 0.591 µM); MIC (Staphylococcus aureus [13]): 0.5 µg/mL (≈ 0.591 µM)

**Q.** For N=C(N)N/N=C/c1ccc(C#Cc2ccc(Cl)cc2)cc1, which MIC (Staphylococcus aureus [14]) is on record?
**A.** 0.25 µg/mL (≈ 0.842 µM)

**Q.** What about the MIC (Enterococcus faecalis [15]) of the same compound?
**A.** 0.25 µg/mL (≈ 0.842 µM)

**Q.** And the MIC (Bacillus subtilis [16])?
**A.** 0.25 µg/mL (≈ 0.842 µM)

**Q.** What about the MIC (Staphylococcus aureus [17]) of the same compound?
**A.** 0.25 µg/mL (≈ 0.842 µM)

**Q.** And the MIC (Staphylococcus aureus [18])?
**A.** 0.25 µg/mL (≈ 0.842 µM)

**Q.** And the MIC (Streptococcus mutans)?
**A.** 0.25 µg/mL (≈ 0.842 µM)

**Q.** And the MIC (Enterococcus faecalis [19])?
**A.** 0.25 µg/mL (≈ 0.842 µM)

**Q.** What about the MIC (Bacillus subtilis [20]) of the same compound?
**A.** 0.25 µg/mL (≈ 0.842 µM)

**Q.** And the MIC (Escherichia coli [21])?
**A.** 0.25 µg/mL (≈ 0.842 µM)

**Q.** What about the MIC (Escherichia coli [22]) of the same compound?
**A.** 0.25 µg/mL (≈ 0.842 µM)

**Q.** What about the MIC (Pseudomonas aeruginosa [23]) of the same compound?
**A.** 0.25 µg/mL (≈ 0.842 µM)

**Q.** What about the MIC (Pseudomonas aeruginosa [24]) of the same compound?
**A.** 0.25 µg/mL (≈ 0.842 µM)

**Q.** And the MIC (Staphylococcus aureus [25])?
**A.** 0.25 µg/mL (≈ 0.842 µM)

**Q.** And the MIC (Staphylococcus aureus [26])?
**A.** 0.25 µg/mL (≈ 0.842 µM)

**Q.** What about the MIC (Pseudomonas aeruginosa [27]) of the same compound?
**A.** 0.25 µg/mL (≈ 0.842 µM)

**Q.** How did the MIC [28] turn out when Cc1ccc(-n2nc(C)c3c(-c4c(C)nn(-c5ccccc5)c4Cl)nc(N)nc32)cc1 was run?
**A.** 1.2 µg/mL (≈ 2.79 µM)

**Q.** For N=C(N)NC[C@H]1OC(O[C@H]2C(NC(=O)[C@H](O)CCN)C[C@H](N)[C@@H](O[C@H]3O[C@H](CN)[C@@H](O)[C@H](O)[C@H]3O)[C@@H]2O)[C@H](O)[C@@H](N)[C@@H]1O (stereo not given in full), which MIC (Staphylococcus aureus [29]) is on record?
**A.** 3.12 µg/mL (≈ 4.99 µM)

**Q.** With Cl.N=C(N)NCCCNC(=O)C(=O)c1cc(Cl)ccc1NC(=O)c1ccc2ccccc2c1 as the compound, how does the MIC (Staphylococcus aureus [30]) read?
**A.** 8 µg/mL

**Q.** How did the MIC [31] turn out when N=C(N)NCCNC(=O)c1cc2c([nH]c3ccccc32)c(-c2ccc(O)cc2)n1 was run?
**A.** 27.8 µg/mL (≈ 71.6 µM)

**Q.** For Cn1oc(=O)n(CCCCCCCCCCCCn2c(=O)on(C)c2=O)c1=N, which ED50 [32] is on record?
**A.** 4 mg/kg

**Q.** And the ED50 [33]?
**A.** 82 mg/kg

**Q.** Which MIC (Staphylococcus aureus [30]) does the source give for Cl.N=C(N)NCCCNC(=O)C(=O)c1cc(Br)ccc1NC(=O)c1ccc2ccccc2c1 here?
**A.** 6 µg/mL

**Q.** With COC(=O)C(CCCCNC(=N)N)NC(=O)C(=O)c1ccccc1NC(=O)c1ccc2ccccc2c1.Cl (stereo not given) as the compound, how does the MIC (Escherichia coli [34]) read?
**A.** 17 µg/mL

**Q.** Which MIC [28] does the source give for Cc1nn(-c2ccccc2)c(Cl)c1-c1nc(N)nc2c1c(C)nn2-c1ccc(S(=O)(=O)O)cc1Cl here?
**A.** 1.2 µg/mL (≈ 2.26 µM)

**Q.** For Cc1nn(-c2ccccc2)c(Cl)c1-c1nc(N)nc2c1c(C)nn2-c1cccc(Cl)c1, which MIC [28] is on record?
**A.** 1.2 µg/mL (≈ 2.66 µM)

**Q.** How did the MIC [35] turn out when N=C(N)Nc1nnc2nccn2n1 was run?
**A.** 1.5 µg/mL (≈ 8.42 µM)
